Columns and labels:
HBV = assay: HBV-DNA antiviral assay using HepG2.117 cells; format: cell-based, HBV genotype D; settings: Hepatitis B virus, HepG2.117, 72 h
Protocol: (§1) The following assay procedure describes the HBV antiviral assay, using HepG2.117 cells, which carry a stably integrated genotype D HBV genome under the control of a Tet-off promoter, and intracellular HBV DNA quantification as endpoint. Cell viability is assessed in parallel by measuring the intracellular ATP content using CellTiter-Glo 2.0 (Promega).
On day 0, HepG2.117 cells (which are maintained in routine cell culture with doxycycline present in the medium at a final concentration of 1 μg/mL) are seeded in 96-well plates (white with clear bottom) at a density of 2.0×10^4 cells/well (0.1 mL/well) in medium without doxycycline to induce pgRNA transcription and subsequent formation of HBV particles. The cells are incubated at 37° C. and 5% CO2.
(§2) On day 1, medium is removed from each well, the test articles are diluted in culture medium without doxcycyline and 100 μL was added to cell culture wells (9 concentrations, 4-fold dilution). For each plate, 6 untreated (merely DMSO) wells are included. The final concentration of DMSO in the culture medium is 2%. Each plate is prepared in duplicate (one for HBV DNA extraction, one for CellTiter-Glo 2.0 measurement). The cells are incubated at 37° C. and 5% CO2 for 3 days.
(§3) On day 4, cell viability is assessed using CellTiter-Glo 2.0 and cell lysates are prepared for HBV DNA extraction and subsequent quantification by qPCR.
HBV DNA Quantification by qPCR
Medium is removed from each well and 100 μL of 0.33% NP-40 in H2O was added to each well. Plates are sealed, incubated at 4° C. for 5 mins, vortexed extensively and centrifuged briefly. Next, 35 μL of lysate is added to 65 μL QuickExtract DNA Extraction Solution (Epicentre) in a PCR plate for each well. PCR plate is incubated at 65° C. for 6 mins, 98° C. for 2 mins and finally cooled to 4° C. HBV DNA is then quantified by qPCR with HBV-specific primers and probes as specified in Table 3 using the Bio-Rad SSOAdvanced Universal Probes Supermix on a CFX96 machine (Bio-Rad). The PCR cycle program consisted of 95° C. for 3 mins, followed by 40 cycles at 95° C. for 10 sec and 60° C. for 30 sec.
A DNA standard is prepared by dilution of an IDT gBlock corresponding to the amplicon with concentrations ranging from 10^2 to 10^8 copies/input (i.e., per 4 μL) and used to generate a standard curve by plotting Cq values vs. HBV DNA standard concentration. The quantity of HBV DNA in each sample is determined by interpolating from the standard curve.
(§4) Cell viability is calculated as follows: % Cell viability=(luminescence value of test sample)/(average luminescence value of 2% DMSO control)×100%. HBV DNA inhibition was calculated as follows: 100−(HBV DNA copy number of test sample)/(average HBV DNA copy number of 2% DMSO control)×100%. No normalization to entecavir is required due to the excellent dynamic window of this assay. The CC50, EC50 and EC9o values were determined by dose-response curves fitted using non-linear regression.

[1] = Cell viability by CellTiter-Glo 2.0 (intracellular ATP content) in HepG2.117 cells; format: cell-based; settings: human, CellTiter-Glo 2.0, 3 days incubation
Protocol: as §1, §2, §3
Using the other plates, the cell viability is quantified by CellTiter-Glo 2.0 according to the manufacturer's manual. In brief, 100 μL of reagent solution is added to the culture plates and shaken for 2′. The plates are incubated at rt for 10 min and luminescence signal is subsequently measured on a VarioSkan Lux (ThermoFisher) plate reader.
as §4

SMILES	EC50 (HBV) [nM]	CC50 at 3 days [1] [nM]
Cc1cc(C)n(-c2nc3c(c(=O)n2-c2ccc(OC[C@H](C)OP(=O)(O)O)cc2)C[C@@H](C)N(C(=O)c2ccc(Br)c(C(F)(F)F)c2)C3)n1 [Compound 12, (S)-1-(4-((R)-7-(4-bromo-3-(trifluoromethyl)benzoyl)-2-(3,5-dimethyl-1H-pyrazol-1-yl)-6-methyl-4-oxo-5,6,7,8-tetrahydropyrido[3,4-d]pyrimidin-3(4H)-yl)phenoxy)propan-2-yl dihydrogen phosphate]	50 to 500	> 500
Cc1cc(C)n(-c2nc3c(c(=O)n2-c2ccc(O)cc2)C[C@@H](C)N(C(=O)c2ccc(Br)c(C(F)(F)F)c2)C3)n1 [Compound 4, (R)-7-(4-bromo-3-(trifluoromethyl)benzoyl)-2-(3,5-dimethyl-1H-pyrazol-1-yl)-3-(4-hydroxyphenyl)-6-methyl-5,6,7,8-tetrahydropyrido[3,4-d]pyrimidin-4(3H)-one]	< 50	> 500
CNC(=O)c1ccc(-n2c(-n3nc(C)cc3C)nc3c(c2=O)C[C@@H](C)N(C(=O)c2ccc(Br)c(C(F)(F)F)c2)C3)cn1 [Compound 18, 5-[(6R)-7-[4-bromo-3-(trifluoromethyl)benzoyl]-2-(3,5-dimethylpyrazol-1-yl)-6-methyl-4-oxo-6,8-dihydro-5H-pyrido[3,4-d]pyrimidin-3-yl]-N-methyl-pyridine-2-carboxamide]	< 50	> 500
Cc1cc(C)n(-c2nc3c(c(=O)n2-c2ccc(N4CCN(C(C)C)CC4)nc2)C[C@@H](C)N(C(=O)c2ccc(Br)c(C(F)(F)F)c2)C3)n1 [Compound 34, (6R)-7-[4-bromo-3-(trifluoromethyl)benzoyl]-2-(3,5-dimethylpyrazol-1-yl)-3-[6-(4-isopropylpiperazin-1-yl)-3-pyridyl]-6-methyl-6,8-dihydro-5H-pyrido[3,4-d]pyrimidin-4-one]	< 50	> 500
CNC(=O)c1ccc(-n2c(-n3nc(C)cc3C)nc3c(c2=O)C[C@@H](C)N(C(=O)c2ccc(Br)c(C(F)(F)F)c2)C3)cc1N [Compound 24, 2-amino-4-[(6R)-7-[4-bromo-3-(trifluoromethyl)benzoyl]-2-(3,5-dimethylpyrazol-1-yl)-6-methyl-4-oxo-6,8-dihydro-5H-pyrido[3,4-d]pyrimidin-3-yl]-N-methyl-benzamide]	< 50	> 500
Cc1cc(C)n(-c2nc3c(c(=O)n2-c2ccc(N4CC[C@@H](O)C4)nc2)C[C@@H](C)N(C(=O)c2ccc(Br)c(C(F)(F)F)c2)C3)n1 [Compound 9, (R)-7-(4-bromo-3-(trifluoromethyl)benzoyl)-2-(3,5-dimethyl-1H-pyrazol-1-yl)-3-(6-((R)-3-hydroxypyrrolidin-1-yl)pyridin-3-yl)-6-methyl-5,6,7,8-tetrahydropyrido[3,4-d]pyrimidin-4(3H)-one]	< 50	> 500
Cc1cc(C)n(-c2nc3c(c(=O)n2-c2ccc4c(cnn4C)c2)C[C@@H](C)N(C(=O)c2ccc(Br)c(C(F)(F)F)c2)C3)n1 [Compound 13, (6R)-7-[4-bromo-3-(trifluoromethyl)benzoyl]-2-(3,5-dimethylpyrazol-1-yl)-6-methyl-3-(1-methylindazol-5-yl)-6,8-dihydro-5H-pyrido[3,4-d]pyrimidin-4-one]	< 50	> 500
Cc1cc(C)n(-c2nc3c(c(=O)n2-c2ccc(OC[C@@H](O)CO)cc2)C[C@@H](C)N(C(=O)c2ccc(Br)c(C(F)(F)F)c2)C3)n1 [Compound 6, (R)-7-(4-bromo-3-(trifluoromethyl)benzoyl)-3-(4-((S)-2,3-dihydroxypropoxy)phenyl)-2-(3,5-dimethyl-1H-pyrazol-1-yl)-6-methyl-5,6,7,8-tetrahydropyrido[3,4-d]pyrimidin-4(3H)-one]	50 to 500	> 500
Cc1cc(C)n(-c2nc3c(c(=O)n2-c2ccc(N[C@H]4C[C@H](O)C4)nc2)C[C@@H](C)N(C(=O)c2ccc(Br)c(C(F)(F)F)c2)C3)n1 [Compound 36, (R)-7-(4-bromo-3-(trifluoromethyl)benzoyl)-2-(3,5-dimethyl-1H-pyrazol-1-yl)-3-(6-(((1r,3R)-3-hydroxycyclobutyl)amino)pyridin-3-yl)-6-methyl-5,6,7,8-tetrahydropyrido[3,4-d]pyrimidin-4(3H)-one]	< 50	> 500
Cc1cc(C)n(-c2nc3c(c(=O)n2-c2cc(C)c4c(c2)ncn4C)C[C@@H](C)N(C(=O)c2ccc(Br)c(C(F)(F)F)c2)C3)n1 [Compound 26, (6R)-7-[4-bromo-3-(trifluoromethyl)benzoyl]-3-(1,7-dimethylbenzimidazol-5-yl)-2-(3,5-dimethylpyrazol-1-yl)-6-methyl-6,8-dihydro-5H-pyrido[3,4-d]pyrimidin-4-one]	< 50	> 500
Cc1cc(C)n(-c2nc3c(c(=O)n2-c2ccc(O[C@H]4C[C@H](O)C4)nc2)C[C@@H](C)N(C(=O)c2ccc(Br)c(C(F)(F)F)c2)C3)n1 [Compound 40, (R)-7-(4-bromo-3-(trifluoromethyl)benzoyl)-2-(3,5-dimethyl-1H-pyrazol-1-yl)-3-(6-((1r,3R)-3-hydroxycyclobutoxy)pyridin-3-yl)-6-methyl-5,6,7,8-tetrahydropyrido[3,4-d]pyrimidin-4(3H)-one]	< 50	> 500
Cc1cc(C)n(-c2nc3c(c(=O)n2-c2ccc(NC[C@@H](C)O)nc2)C[C@@H](C)N(C(=O)c2ccc(Br)c(C(F)(F)F)c2)C3)n1 [Compound 8, (R)-7-(4-bromo-3-(trifluoromethyl)benzoyl)-2-(3,5-dimethyl-1H-pyrazol-1-yl)-3-(6-(((R)-2-hydroxypropyl)amino)pyridin-3-yl)-6-methyl-5,6,7,8-tetrahydropyrido[3,4-d]pyrimidin-4(3H)-one]	< 50	> 500
Cc1cc(C)n(-c2nc3c(c(=O)n2-c2ccc(OC[C@H](C)O)nc2)C[C@@H](C)N(C(=O)c2ccc(Br)c(C(F)(F)F)c2)C3)n1 [Compound 28, (6R)-7-[4-bromo-3-(trifluoromethyl)benzoyl]-2-(3,5-dimethylpyrazol-1-yl)-3-[6-[(2S)-2-hydroxypropoxy]-3-pyridyl]-6-methyl-6,8-dihydro-5H-pyrido[3,4-d]pyrimidin-4-one]	< 50	> 500
Cc1cc(C)n(-c2nc3c(c(=O)n2-c2ccc(O[C@H]4C[C@@H](O)C4)nc2)C[C@@H](C)N(C(=O)c2ccc(Br)c(C(F)(F)F)c2)C3)n1 [Compound 39, (R)-7-(4-bromo-3-(trifluoromethyl)benzoyl)-2-(3,5-dimethyl-1H-pyrazol-1-yl)-3-(6-((1s,3S)-3-hydroxycyclobutoxy)pyridin-3-yl)-6-methyl-5,6,7,8-tetrahydropyrido[3,4-d]pyrimidin-4(3H)-one]	< 50	> 500
Cc1cc(C)n(-c2nc3c(c(=O)n2-c2cnc4c(c2)ncn4C)C[C@@H](C)N(C(=O)c2ccc(Br)c(C(F)(F)F)c2)C3)n1 [Compound 19, (6R)-7-[4-bromo-3-(trifluoromethyl)benzoyl]-2-(3,5-dimethylpyrazol-1-yl)-6-methyl-3-(3-methylimidazo[4,5-b]pyridin-6-yl)-6,8-dihydro-5H-pyrido[3,4-d]pyrimidin-4-one]	< 50	> 500
Cc1cc(C)n(-c2nc3c(c(=O)n2-c2ccc(N4CC(O)C4)nc2)C[C@@H](C)N(C(=O)c2ccc(Br)c(C(F)(F)F)c2)C3)n1 [Compound 32, (6R)-7-[4-bromo-3-(trifluoromethyl)benzoyl]-2-(3,5-dimethylpyrazol-1-yl)-3-[6-(3-hydroxyazetidin-1-yl)-3-pyridyl]-6-methyl-6,8-dihydro-5H-pyrido[3,4-d]pyrimidin-4-one]	< 50	> 500

Source: patent publication US20230382909A1, “BICYCLIC COMPOUNDS” (Aligos Therapeutics, Inc., priority 2022, published 2023)
